In US20230373985A1 (Origenis Gmbh, priority 2020, published 2023):
pIC50: −log10 of the molar value.

What was measured:
[1] = target: T1, wt human TYK2, catalytic site (Homo sapiens, UniProt P29597); assay: HTRF KinEASE assay, TYK2; format: biochemical; conditions: 1 μM ATP; read-out: IC50, Activity Toward TYK2
T1 construct: wt human TYK2, catalytic site; purchased SignalChem
T1 sequence (P29597 897-1176 limits assumed): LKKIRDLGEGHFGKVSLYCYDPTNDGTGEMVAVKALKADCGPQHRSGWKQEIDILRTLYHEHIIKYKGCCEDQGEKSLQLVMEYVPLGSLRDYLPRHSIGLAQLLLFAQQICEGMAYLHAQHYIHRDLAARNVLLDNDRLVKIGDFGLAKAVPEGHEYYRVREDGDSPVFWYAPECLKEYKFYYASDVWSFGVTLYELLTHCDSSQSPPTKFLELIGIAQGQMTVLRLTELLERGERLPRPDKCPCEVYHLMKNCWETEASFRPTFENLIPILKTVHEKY
In short: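 HTRF KinEASE-TK readout with 1 μM biotinylated TK substrate in 1× kinase buffer, ≥30 min at room temperature, then antibody/streptavidin-XL665 detection for 60 min. TYK2 at 2 nM with 1 μM ATP; JAK2 at 1 nM with 100 μM ATP. Analysis uses emission ratios.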

[2] = target: T2, wt human JAK1, catalytic site (Homo sapiens, UniProt P23458); assay: HTRF KinEASE assay, JAK1; format: biochemical; conditions: 2.5 μM ATP; read-out: IC50, Activity Toward JAK1
T2 construct: wt human JAK1, catalytic site; purchased ThermoFisher
In short: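 Two-step HTRF KinEASE assay: compound, kinase/biotinylated TK substrate and ATP were incubated at least 30 min at room temperature. Antibody plus streptavidin-XL665 was then added and plates were read after 60 min. Inhibition was derived from emission ratios according to the kit protocol.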

T2 sequence (P23458 875-1153 limits assumed): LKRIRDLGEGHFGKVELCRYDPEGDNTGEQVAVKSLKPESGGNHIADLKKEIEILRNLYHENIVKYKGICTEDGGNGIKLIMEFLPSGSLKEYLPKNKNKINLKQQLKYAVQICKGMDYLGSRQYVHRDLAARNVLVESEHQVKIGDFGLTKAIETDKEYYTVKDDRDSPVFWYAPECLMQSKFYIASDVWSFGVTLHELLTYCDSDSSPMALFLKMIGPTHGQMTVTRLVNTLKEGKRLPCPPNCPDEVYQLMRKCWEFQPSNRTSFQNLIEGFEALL

| SMILES | pIC50 [1] | pIC50 [2] |
| --- | --- | --- |
| NC(=O)c1nn(-c2c(Cl)cccc2Cl)nc1Nc1ccc(C(=O)N2CC(F)(F)C(F)(F)C2)cn1 [compound 132, 2-(2,6-dichlorophenyl)-5-((5-(3,3,4,4-tetrafluoropyrrolidine-1-carbonyl)pyridin-2-yl)amino)-2H-1,2,3-triazole-4-carboxamide] | 6.00 to 7.00 | 6.00 to 7.00 |
| CC(C)(C)OC(=O)N1CCCC(NC(=O)c2ccc(Nc3cn(-c4c(Cl)cccc4Cl)nc3C(N)=O)cc2)C1 (stereo not shown) [compound 33, tert-butyl_3-(4-((3-carbamoyl-1-(2,6-dichlorophenyl)-1H-pyrazol-4-yl)amino)benzamido)piperidine-1-carboxylate] | 6.00 to 7.00 | 6.00 to 7.00 |
| CC1(C)CN(C(=O)c2ccc(Nc3nn(-c4c(Cl)cccc4Cl)nc3C(N)=O)cc2)C1 [compound 166, 2-(2,6-dichlorophenyl)-5-((4-(3,3-dimethylazetidine-1-carbonyl)phenyl)amino)-2H-1,2,3-triazole-4-carboxamide] | 7.00 to 8.00 | > 8.00 |
| NC(=O)c1nn(-c2c(Cl)cccc2Cl)nc1Nc1ccc(C(=O)N2CCCC2)cn1 [compound 137, 2-(2,6-dichlorophenyl)-5-((5-(pyrrolidine-1-carbonyl)pyridin-2-yl)amino)-2H-1,2,3-triazole-4-carboxamide] | 7.00 to 8.00 | 7.00 to 8.00 |
| Cc1nnnn1-c1ccc(Nc2cn(-c3c(Cl)cccc3Cl)nc2C(N)=O)nc1 [compound 435, 1-(2,6-dichlorophenyl)-4-((5-(5-methyl-1H-tetrazol-1-yl)pyridin-2-yl)amino)-1H-pyrazole-3-carboxamide] | 7.00 to 8.00 | 7.00 to 8.00 |
| COCc1nc(C(F)(F)F)nn1-c1ccc(Nc2cn(-c3c(F)cccc3Cl)nc2C(N)=O)cc1 [compound 298, 1-(2-chloro-6-fluorophenyl)-4-((4-(5-(methoxymethyl)-3-(trifluoromethyl)-1H-1,2,4-triazol-1-yl)phenyl)amino)-1H-pyrazole-3-carboxamide] | 7.00 to 8.00 | 6.00 to 7.00 |
| Cn1ccc(Oc2ccc(Nc3cn(-c4c(Cl)cccc4Cl)nc3C(N)=O)cc2)n1 [compound 78, 1-(2,6-dichlorophenyl)-4-((4-((1-methyl-1H-pyrazol-3-yl)oxy)phenyl)amino)-1H-pyrazole-3-carboxamide] | 7.00 to 8.00 | 6.00 to 7.00 |
| CN1CCN(C(=O)c2ccc(Nc3nn(-c4c(Cl)cccc4Cl)nc3C(N)=O)nc2)CC1 [compound 127, 2-(2,6-dichlorophenyl)-5-((5-(4-methylpiperazine-1-carbonyl)pyridin-2-yl)amino)-2H-1,2,3-triazole-4-carboxamide] | 6.00 to 7.00 | 6.00 to 7.00 |
| Cc1cccc2nnc(-c3ccc(Nc4cn(-c5c(Cl)cccc5Cl)nc4C(N)=O)nc3)n12 [compound 429, 1-(2,6-dichlorophenyl)-4-((5-(5-methyl-[1,2,4]triazolo[4,3-a]pyridin-3-yl)pyridin-2-yl)amino)-1H-pyrazole-3-carboxamide] | 7.00 to 8.00 | 6.00 to 7.00 |
| NC(=O)c1nn(-c2c(Cl)cccc2Cl)nc1Nc1ccc(CC(=O)N2CC(F)C2)nc1 [compound 152, 2-(2,6-dichlorophenyl)-5-((6-(2-(3-fluoroazetidin-1-yl)-2-oxoethyl)pyridin-3-yl)amino)-2H-1,2,3-triazole-4-carboxamide] | 6.00 to 7.00 | 7.00 to 8.00 |
| NC(=O)c1nn(-c2c(Cl)cccc2Cl)nc1Nc1ccc(N2CCOCC2)cn1 [compound 143, 2-(2,6-dichlorophenyl)-5-((5-morpholinopyridin-2-yl)amino)-2H-1,2,3-triazole-4-carboxamide] | 6.00 to 7.00 | 6.00 to 7.00 |
| COCCNC(=O)c1ccc(Nc2cn(-c3c(Cl)cccc3Cl)nc2C(N)=O)cc1 [compound 419, 1-(2,6-dichlorophenyl)-4-((4-((2-methoxyethyl)carbamoyl)phenyl)amino)-1H-pyrazole-3-carboxamide] | 7.00 to 8.00 | 7.00 to 8.00 |
| CC(C)n1cnnc1-c1ccc(Nc2nn(-c3c(Cl)cccc3Cl)nc2C(N)=O)cc1 [compound 125, 2-(2,6-dichlorophenyl)-5-((4-(4-isopropyl-4H-1,2,4-triazol-3-yl)phenyl)amino)-2H-1,2,3-triazole-4-carboxamide] | 7.00 to 8.00 | 7.00 to 8.00 |
| Cc1cccc2ncc(-c3ccc(Nc4cn(-c5c(Cl)cccc5Cl)nc4C(N)=O)cn3)n12 [compound 473, 1-(2,6-dichlorophenyl)-4-((6-(5-methylimidazo[1,2-a]pyridin-3-yl)pyridin-3-yl)amino)-1H-pyrazole-3-carboxamide] | 7.00 to 8.00 | 7.00 to 8.00 |
| COCCNC(=O)c1ccc(Nc2nn(-c3c(Cl)cccc3Cl)nc2C(N)=O)cc1 [compound 123, 2-(2,6-dichlorophenyl)-5-((4-((2-methoxyethyl)carbamoyl)phenyl)amino)-2H-1,2,3-triazole-4-carboxamide] | 7.00 to 8.00 | > 8.00 |
| COc1ccc(Cn2cc(Nc3cn(-c4c(Cl)cccc4Cl)nc3C(N)=O)cn2)cc1 [compound 392, 1-(2,6-dichlorophenyl)-4-((1-(4-methoxybenzyl)-1H-pyrazol-4-yl)amino)-1H-pyrazole-3-carboxamide] | 6.00 to 7.00 | 6.00 to 7.00 |
| NC(=O)c1nn(-c2c(Cl)cccc2Cl)cc1Nc1ccc(N2CCOCC2)cn1 [compound 428, 1-(2,6-dichlorophenyl)-4-((5-morpholinopyridin-2-yl)amino)-1H-pyrazole-3-carboxamide] | 6.00 to 7.00 | 6.00 to 7.00 |
| NC(=O)c1nn(-c2c(Cl)cccc2Cl)cc1Nc1ccc(C(=O)N2CC(F)C2)cn1 [compound 449, 1-(2,6-dichlorophenyl)-4-((5-(3-fluoroazetidine-1-carbonyl)pyridin-2-yl)amino)-1H-pyrazole-3-carboxamide] | 6.00 to 7.00 | 6.00 to 7.00 |
| CN1CCCN(C(=O)c2ccc(Nc3nn(-c4c(Cl)cccc4Cl)nc3C(N)=O)nc2)CC1 [compound 150, 2-(2,6-dichlorophenyl)-5-((5-(4-methyl-1,4-diazepane-1-carbonyl)pyridin-2-yl)amino)-2H-1,2,3-triazole-4-carboxamide] | 7.00 to 8.00 | 7.00 to 8.00 |
| NC(=O)c1nn(-c2c(Cl)cccc2Cl)cc1Nc1ccc(-c2ccnnc2)nc1 [compound 352, 1-(2,6-dichlorophenyl)-4-((6-(pyridazin-4-yl)pyridin-3-yl)amino)-1H-pyrazole-3-carboxamide] | 6.00 to 7.00 | 6.00 to 7.00 |
| NC(=O)c1nn(-c2c(Cl)cccc2Cl)nc1Nc1cnn(CC(=O)N2CCS(=O)(=O)CC2)c1 [compound 174, 2-(2,6-dichlorophenyl)-5-((1-(2-(1,1-dioxidothiomorpholino)-2-oxoethyl)-1H-pyrazol-4-yl)amino)-2H-1,2,3-triazole-4-carboxamide] | 7.00 to 8.00 | > 8.00 |
| CC(C)(C)C(=O)c1ccc(Nc2cn(-c3c(Cl)cccc3Cl)nc2C(N)=O)cc1 [compound 41, 1-(2,6-dichlorophenyl)-4-((4-pivaloylphenyl)amino)-1H-pyrazole-3-carboxamide] | 6.00 to 7.00 | 6.00 to 7.00 |
| CN1CCN(C(=O)c2cnc(Nc3cn(-c4c(Cl)cccc4Cl)nc3C(N)=O)cn2)CC1 [compound 402, 1-(2,6-dichlorophenyl)-4-((5-(4-methylpiperazine-1-carbonyl)pyrazin-2-yl)amino)-1H-pyrazole-3-carboxamide] | 6.00 to 7.00 | 6.00 to 7.00 |
| CCc1ccn(-c2ccc(Nc3cn(-c4c(Cl)cccc4Cl)nc3C(N)=O)cc2)n1 [compound 240, 1-(2,6-dichlorophenyl)-4-((4-(3-ethyl-1H-pyrazol-1-yl)phenyl)amino)-1H-pyrazole-3-carboxamide] | 6.00 to 7.00 | 6.00 to 7.00 |
| CN1CCCN(C(=O)c2ccc(Nc3cn(-c4c(Cl)cccc4Cl)nc3C(N)=O)nc2)CC1 [compound 448, 1-(2,6-dichlorophenyl)-4-((5-(4-methyl-1,4-diazepane-1-carbonyl)pyridin-2-yl)amino)-1H-pyrazole-3-carboxamide] | 6.00 to 7.00 | 7.00 to 8.00 |
| CC(C)n1cc(Nc2cn(-c3c(Cl)cccc3Cl)nc2C(N)=O)cn1 [compound 378, 1-(2,6-dichlorophenyl)-4-((1-isopropyl-1H-pyrazol-4-yl)amino)-1H-pyrazole-3-carboxamide] | 7.00 to 8.00 | 6.00 to 7.00 |
| NC(=O)c1nn(-c2c(Cl)cccc2Cl)cc1Nc1ccc(C(=O)N2CC[C@H](N)C2)nc1 [compound 357, (S)-4-((6-(3-aminopyrrolidine-1-carbonyl)pyridin-3-yl)amino)-1-(2,6-dichlorophenyl)-1H-pyrazole-3-carboxamide] | 7.00 to 8.00 | 6.00 to 7.00 |
| Cn1nc(C(F)(F)F)nc1-c1ccc(Nc2cn(-c3c(Cl)cccc3Cl)nc2C(N)=O)cc1 [compound 215, 1-(2,6-dichlorophenyl)-4-((4-(1-methyl-3-(trifluoromethyl)-1H-1,2,4-triazol-5-yl)phenyl)amino)-1H-pyrazole-3-carboxamide] | > 8.00 | 7.00 to 8.00 |
| Cn1cc(Nc2cn(-c3c(Cl)cccc3Cl)nc2C(N)=O)nn1 [compound 380, 1-(2,6-dichlorophenyl)-4-((1-methyl-1H-1,2,3-triazol-4-yl)amino)-1H-pyrazole-3-carboxamide] | 6.00 to 7.00 | 6.00 to 7.00 |
